{"source": "paper PMC12571071", "about": "“Preventing neuropathy and improving anticancer chemotherapy with a carbazole-based compound” (Science Advances, 2025)", "key": {"PTX-induced neuropathy": {"system": "PTX-induced neuropathy", "test": "Rat model of PTX-induced peripheral neuropathy (von Frey, serum NfL, IENFD)", "type": "in vivo", "method": "Control animals received an equivalent volume of the vehicle (cremophor EL:ethanol, 1:1) diluted 1:4 in 0.9% NaCl.\nCarba1 was injected intraperitoneally six times (50 mg/kg) on days 0, 1, 2, 4, 7, and 9, resulting in a cumulative dose of 300 mg/kg (Fig. 2F). For each injection, Carba1 was injected intraperitoneally at 50 mg/kg on days 0, 1, 2, 4, 7, and 9, for a cumulative dose of 300 mg/kg, using a stock solution (150 mg/ml; cremophor EL:ethanol, 1:1) diluted to 50 mg/ml in 0.9% NaCl. Control animals for Carba1 received the same volume of the vehicle [cremophor EL:ethanol (1:1) diluted 1:3 in 0.9% NaCl]. […] To prevent cross-exposure through feces and urine, treatment groups were randomized by cage, with each cage housing three animals.\nTactile allodynia, a common sensory disorder reported in animal models of CIPN ([56]), was assessed using an electronic von Frey test (Bioseb) ([68]). Rats were placed in plastic compartments on a wire floor and allowed to habituate for 15 min. […] The maximum force (in grams) causing withdrawal was recorded automatically. The average of two measurements, not differing by more than 10 g, was used as the nociceptive threshold ([68]). Rats were habituated to the compartments 3 days before the first injection, and the experimenter was blinded to treatment groups.\nBlood samples were collected on day 15 in vials with a clot activator, left at R.T. for up to 1 hour before centrifugation at 4100 rpm at 20°C for 10 min. Serum was then collected, aliquoted, and stored at −80°C until analysis. To reduce batch effects, serum samples were randomized on assay plates. NfL concentration was measured in the serum using commercial kits (Simple Plex Ella ProteinSimple, USA; Rat NfL Kit ProteinSimple) ([27]).\nSkin samples from both hind paws were fixed in 4% PFA overnight at 4°C, followed by sucrose cryoprotection (10, 20, and 30%) at 4°C overnight. After embedding in tissue freezing medium, the samples were at −80°C. Sections (20 μm) were cut using a cryostat at −17°C, washed with PBS for 5 min, and dried. The sections were blocked in PBS/0.2% Triton X-100/1%BSA for 1 hour and then incubated overnight at R.T. with anti-PGP9.5 antibody (1:400). After washing with PBS, sections were incubated with goat anti-rabbit Alexa Fluor488 secondary antibody for 2 hours, and the nuclei were stained with DAPI. Imaging was performed by acquiring 0.5 μm Z-stacks and exposure times for DAPI and fluorescein isothiocyanate set to 600 ms. Quantification followed the method described by Lauria et al. ([69])."}, "[1]": {"system": "HeLa cells xenografted in mice", "test": "HeLa tumor xenograft in nude mice", "type": "in vivo", "settings": "PTX 8 mg/kg", "method": "Five-week-old NMRI nude mice (Janvier Labs) were implanted with 10 × 10^6 HeLa cells (200 μl in PBS) on the right flank. On day 6, the mean tumor volume was 120 ± 4 mm^3. […] Behavior and signs of pain were monitored daily. Body weight and tumor volume were measured two to three times per week using electronic calipers, with tumor volume (in cubic millimeters) calculated as length (millimeters)/2 × width^2 (square millimeters). Tumor growth inhibition was analyzed using GraphPad Prism with one-way analysis of variance (ANOVA) and Dunn’s multiple comparisons test for treatment versus vehicle. Mice were euthanized on day 20, when the vehicle group reached ethical limits. Blood samples were collected by intracardiac puncture in EDTA-coated tubes for differential blood counts and hemograms, outsourced to IDEXX BioAnalytics. For biochemical analysis, blood was collected in heparin-lithium tubes, and plasma was isolated by centrifugation and frozen at −80°C. Plasma was analyzed using MS Scan II (Melet Schloesing) and VET16 reagent rotors to measure markers of renal and hepatic function, metabolism, and nutritional and muscular status. Differential counts, hemograms, and biochemical data were analyzed with GraphPad Prism using Kruskal-Wallis test and Dunn’s multiple comparisons test."}, "NAMPT": {"target": "NAMPT (Homo sapiens, UniProt P43490)", "sequence (P43490 whole entry, species assumed)": "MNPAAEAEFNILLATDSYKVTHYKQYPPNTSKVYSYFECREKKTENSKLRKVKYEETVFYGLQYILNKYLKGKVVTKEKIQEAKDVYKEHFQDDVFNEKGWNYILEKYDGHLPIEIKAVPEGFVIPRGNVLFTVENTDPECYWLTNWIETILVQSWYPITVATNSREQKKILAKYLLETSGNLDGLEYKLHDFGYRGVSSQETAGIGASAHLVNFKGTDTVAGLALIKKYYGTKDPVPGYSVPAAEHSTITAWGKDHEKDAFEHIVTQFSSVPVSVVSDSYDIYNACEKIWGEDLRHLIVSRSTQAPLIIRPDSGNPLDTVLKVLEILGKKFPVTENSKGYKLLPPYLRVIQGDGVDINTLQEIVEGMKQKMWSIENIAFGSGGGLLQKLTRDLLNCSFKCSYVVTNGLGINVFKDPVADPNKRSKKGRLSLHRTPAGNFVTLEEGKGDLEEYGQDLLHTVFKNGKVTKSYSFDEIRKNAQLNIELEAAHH", "test": "AS-MS binding assay, NAMPT", "settings": "10 μM compound, 3 μM NAMPT", "method": "To this end, Carba1 or FK866 (positive control of NAMPT binding) was first incubated with NAMPT or carbonic anhydrase (CA; negative control). Protein-ligand complexes were separated from the unbound compounds by size exclusion chromatography (SEC). To quantify the protein-bound fraction, the complexes were then dissociated using reverse-phase chromatography, and the compounds were analyzed and quantified by mass spectrometry.\nAS-MS was used to assess compound binding to NAMPT. AS-MS was performed by Edelris SAS (www.edelris.com/), which has developed the commercial AS-MS service “EDEN platform,” based on ([71]). Conditions consisted of protein (NAMPT and CA) at 3 μM and compounds (Carba1 and FK866) at 10 μM dissolved in corporate buffer."}, "adult mouse DRG neurons": {"system": "adult mouse DRG neurons", "test": "Axonal degeneration index in dissociated adult mouse DRG neurons", "settings": "72 h", "experimental": "After 4 days in vitro (DIV), at least 30% of medium was changed, and 10 μM AraC (cytosine β-D-arabino furanoside) was added to suppress nonneuronal growth. […] Neurons were fixed with 4% paraformaldehyde (PFA), washed with PBS, permeabilized with PBS–0.01% Triton X-100 for 15 min, and blocked with PBS–10% FBS for 1 hour before being stained overnight at 4°C with neurofilament antibody. Following PBS washes, secondary antibody (goat anti-chicken Alexa Fluor 488) was applied for 2 hours at room temperature (R.T.). Following additional PBS washes, coverslips were mounted with Fluoromount-G.\nImages of random fields of dissociated adult DRG neurons, immunostained with antineurofilament or anti-TUBB3 antibodies, were captured using a 20× objective lens (Olympus IX81) and a Sensicam QE monochrome camera (Cooke Corporation). Degeneration masks were generated on the basis of the method described by Gerdts et al. ([66]). Axonal degeneration was quantified by measuring the total axonal area and fragmented axonal area in the same field, using degeneration masks as shown in fig. […] Images were processed in Fiji using global autothresholding, binarization, and the particle analyzer module to detect fragments (20 to 10,000 pixels), as previously described ([17]). The degeneration index was calculated as the ratio of fragmented axonal area to total axonal area."}, "[2]": {"system": "rat embryonic DRG neurons", "test": "Primary rat sensory neuron/Schwann cell culture exposed to Cis (myelination)", "type": "cell-based", "settings": "Cis 10 μg/ml; Carba1 tested at 1, 5, 10 μM", "method": "These experiments, conducted by Neuro-Sys company (www.neuro-sys.com/) involved primary SNs and SCs cultured as previously described ([67]). On DIV 19, cultures were pretreated with Carba1 (1 to 10 μM) for 1 hour before exposure to Cis (10 μg/ml) for 24 hours in presence of Carba1. On DIV 20, the medium containing Cis was replaced with fresh medium and Carba1 for another 24 hours, ending the culture on DIV 21. Cells were fixed with ethanol/acetic acid (95%/5%) for 5 min, permeabilized, and blocked with PBS containing 0.1% saponin and 10% FBS. Cells were incubated with monoclonal anti-MBP (1:1000) and polyclonal anti-neurofilament (1:500) antibodies for 2 hours, followed by CF 488 A goat anti-mouse (1:400, Sigma-Aldrich) and Alexa Fluor 568 goat anti-rabbit (1:400, Molecular Probe) for 1 hour at R.T. Hoechst was used to stain nuclei.\nThirty images per well were acquired at ×20 magnification using ImageXpress (Molecular Devices) with identical acquisition settings, and analysis was automated with MetaXpress software. Key parameters measured included total neurite length (NF; in micrometers), total neurons (NF^+ cells), and myelination (MBP-NF overlap, in square micrometers)."}, "[3]": {"settings": "rat serum, day 15, outliers removed"}}}
{"smiles": "Cc1cc(-n2cccc2)c(C)c2c1[nH]c1ccc(Cl)cc12", "note": "[Compound 1]", "values": [{"measurement": "IENFD, mean", "setting": "PTX-induced neuropathy; rat hind paw biopsies, day 15", "result": 19.54, "unit": "number/mm"}, {"measurement": "IENFD, median", "setting": "PTX-induced neuropathy; rat hind paw biopsies, day 15", "result": 19.88, "unit": "number/mm"}, {"measurement": "NfL, mean", "setting": "PTX-induced neuropathy; [3]", "result": 22.14, "unit": "pg/mL"}, {"measurement": "NfL, median", "setting": "PTX-induced neuropathy; [3]", "result": 22.40, "unit": "pg/mL"}, {"measurement": "effect on PTX-induced tactile allodynia", "setting": "PTX-induced neuropathy; rat, Carba1 50 mg/kg i.p. x6 with PTX 5 mg/kg i.p. x4", "result": "prevents PTX-induced tactile allodynia"}, {"measurement": "effect on PTX-induced intraepidermal nerve fiber degeneration", "setting": "PTX-induced neuropathy; rat, Carba1 cotreatment with PTX", "result": "prevented PTX-induced intraepidermal nerve fiber degeneration"}, {"measurement": "tactile allodynia (paw withdrawal threshold, electronic von Frey), agent alone", "setting": "PTX-induced neuropathy; rat, i.p., PTX 5 mg/kg x4 or Carba1 50 mg/kg x6", "result": "not analgesic"}, {"measurement": "reduction of IENFD, agent alone", "setting": "PTX-induced neuropathy; rat, vs controls", "result": "had no effect"}, {"measurement": "tumor size", "setting": "[1]; i.v. every 2 days, Carba1 60 mg/kg alone or with PTX", "result": "no significant tumor size changes"}, {"measurement": "toxicity (blood counts, markers of renal or hepatic function)", "setting": "[1]; i.v., Carba1 60 mg/kg, or combination", "result": "no detectable toxicity"}, {"measurement": "binding to NAMPT (AS-MS)", "setting": "NAMPT", "result": "directly binds to NAMPT"}, {"measurement": "protection against PTX-induced axonal degeneration", "setting": "adult mouse DRG neurons; 12 μM Carba1 cotreatment with 50 nM PTX", "result": "prevented neuronal degeneration"}, {"measurement": "protection against Bort-induced neuronal fragmentation", "setting": "adult mouse DRG neurons; 12 μM Carba1 cotreatment with 100 nM Bort", "result": "prevent neuronal fragmentation"}, {"measurement": "protection against Cis-induced neuronal fragmentation", "setting": "adult mouse DRG neurons; 12 μM Carba1 cotreatment with 10 μM Cis", "result": "prevent neuronal fragmentation"}, {"measurement": "axonal fragmentation / degeneration, agent alone", "setting": "adult mouse DRG neurons; DIV 12 neurons, Carba1 12 μM, PTX 50 nM, Cis 10 μM, Bort 100 nM", "result": "did not show significant effects on neurite fragmentation"}, {"measurement": "concentration of maximal protective effect against Cis-induced demyelination", "setting": "[2]", "result": 5, "unit": "µM"}]}
